Key:
Format in all cases: functional
[1] = system: Human immunodeficiency virus 1; assay: Antiviral activity against Human immunodeficiency virus 1 harboring M46I mutation in viral protease assessed as fold change in drug susceptibility relative to wild type
[2] = system: Human immunodeficiency virus 1; assay: Antiviral activity against Human immunodeficiency virus 1 harboring protease inhibitor resistance-associated mutations and protease L76V mutation in viral protease assessed as fold change in drug susceptibility relative to wild type
[3] = system: Human immunodeficiency virus 1; assay: Antiviral activity against Human immunodeficiency virus 1 harboring M46I, M46L, I54V, V82A and L76V mutations in viral protease assessed as fold change in drug susceptibility relative to wild type
[4] = system: Human immunodeficiency virus 1; assay: Antiviral activity against Human immunodeficiency virus 1 harboring M46I and L76V mutations in viral protease assessed as fold change in drug susceptibility relative to wild type
[5] = system: Human immunodeficiency virus 1; assay: Antiviral activity against Human immunodeficiency virus 1 harboring M46I, M46L, I54V, and V82A mutations in viral protease assessed as fold change in drug susceptibility relative to wild type
[6] = system: Human immunodeficiency virus 1; assay: Antiviral activity against Human immunodeficiency virus 1 harboring protease inhibitor resistance-associated mutations assessed as fold change in drug susceptibility relative to wild type

| Structure (SMILES) | fold change (FC) [1] | fold change (FC) [2] | fold change (FC) [3] | fold change (FC) [4] | fold change (FC) [5] | fold change (FC) [6] |
| --- | --- | --- | --- | --- | --- | --- |
| CC(C)(C)NC(=O)[C@@H]1CN(Cc2cccnc2)CCN1C[C@@H](O)C[C@@H](Cc1ccccc1)C(=O)N[C@H]1c2ccccc2C[C@H]1O.O [INDINAVIR] | 3.4 | 60.1 | 37.4 | 8.6 | 9.7 | 40.1 |
| CCC[C@@]1(CCc2ccccc2)CC(O)=C([C@H](CC)c2cccc(NS(=O)(=O)c3ccc(C(F)(F)F)cn3)c2)C(=O)O1 [TIPRANAVIR] | 1.2 | 3.6 | 1.2 | 0.8 | 1.7 | 6.7 |
| COC(=O)N[C@H](C(=O)N[C@@H](Cc1ccccc1)[C@@H](O)CN(Cc1ccc(-c2ccccn2)cc1)NC(=O)[C@@H](NC(=O)OC)C(C)(C)C)C(C)(C)C [ATAZANAVIR] | 4.3 | 11.3 | 2.1 | 0.9 | 5.7 | 75.2 |
| CC(C)(C)NC(=O)[C@@H]1C[C@@H]2CCCC[C@@H]2CN1C[C@@H](O)[C@H](Cc1ccccc1)NC(=O)[C@H](CC(N)=O)NC(=O)c1ccc2ccccc2n1 [SAQUINAVIR] | 1.2 | 43.5 | 3.2 | 0.7 | 2.8 | 197.4 |
| Cc1cccc(C)c1OCC(=O)N[C@@H](Cc1ccccc1)[C@@H](O)C[C@H](Cc1ccccc1)NC(=O)[C@H](C(C)C)N1CCCNC1=O [LOPINAVIR] | 1.6 | 174.2 | 163.1 | 9.9 | 28 | 46.1 |
| Cc1c(O)cccc1C(=O)N[C@@H](CSc1ccccc1)[C@H](O)CN1C[C@H]2CCCC[C@H]2C[C@H]1C(=O)NC(C)(C)C [NELFINAVIR] | 7.9 | 36.1 | 14.8 | 2.5 | 13.9 | 78.3 |
| CC(C)CN(C[C@@H](O)[C@H](Cc1ccccc1)NC(=O)O[C@H]1CO[C@H]2OCC[C@H]21)S(=O)(=O)c1ccc(N)cc1 [DARUNAVIR] | 0.9 | 37.4 | 4.2 | 2.8 | 1.1 | 8.5 |
| CC(C)c1nc(CN(C)C(=O)N[C@H](C(=O)N[C@@H](Cc2ccccc2)C[C@H](O)[C@H](Cc2ccccc2)NC(=O)OCc2cncs2)C(C)C)cs1 [RITONAVIR] | 2.2 | 113.2 | 63.6 | 2.7 | 37.6 | 129.7 |
| CC(C)CN(C[C@@H](O)[C@H](Cc1ccccc1)NC(=O)O[C@H]1CCOC1)S(=O)(=O)c1ccc(N)cc1 [AMPRENAVIR] | 1.5 | 70.9 | 19.3 | 6.7 | 3.7 | 21.1 |
